Laboratory results published in article PMC7479175, “Selection of Potent Inhibitors of Soluble Epoxide Hydrolase for Usage in Veterinary Medicine” (Frontiers in Veterinary Science, 2020).
pIC50: −log10 of the molar value. Where two headings read alike, the source gives them in different places.

Experiments:
Microsomal stability [1] = type: in vitro ADME, horse; settings: for Stability (% without microsomes) Horse liver microsomes NADPH + / Stability (% without microsomes) Horse liver microsomes NADPH –: 1 μM inhibitor, microsomes 1 mg/mL, 37°C, 30 min, compound remaining, average ± SD (n = 3); for Stability (% without microsomes) Horse liver microsomes NADPH +: with NADPH; for metabolism in horse liver microsomes (in words): in the presence of NADPH
Method: (§1) The stability of the sEH inhibitors was determined using liver microsomes as described ([24]). […] After 30 min at 37°C, the reaction was stopped by the addition of one volume of methanol containing CUDA (200 nM) as surrogate. The amount of remaining inhibitor was determined by LC/MS/MS. The stability is reported as a percentage of compound remaining after 30 min in these conditions.
(§2) Mass spectrometry analyses were performed using a Waters Quattro Premier triple quadrupole tandem mass spectrometer (Micromass, Manchester, UK) interfaced to an electrospray ionization (ESI) source. The MS was coupled with a Waters Acquity UPLC (Waters, Milford, MA, USA). A Varian Pursuit5 C18 RP HPLC column (150 mm × 2.1 mm, particle size 5 μm) was used to separate the analytes. […] The source and the desolvation temperatures were set at 120 and 300°C, respectively. […] Dwell time was set to 0.1 s.

Microsomal stability [2] = type: in vitro ADME, dog; settings: for Stability (% without microsomes) Dog liver microsomes NADPH + / Stability (% without microsomes) Dog liver microsomes NADPH –: 1 μM inhibitor, microsomes 1 mg/mL, 37°C, 30 min, compound remaining, average ± SD (n = 3); for Stability (% without microsomes) Dog liver microsomes NADPH +: with NADPH; for metabolism in dog liver microsomes (in words): in the presence of NADPH
Method: as §1, §2

Microsomal stability [3] = type: in vitro ADME, cat; settings: for Stability (% without microsomes) Cat liver microsomes NADPH + / Stability (% without microsomes) Cat liver microsomes NADPH –: 1 μM inhibitor, microsomes 1 mg/mL, 37°C, 30 min, compound remaining, average ± SD (n = 3); for Stability (% without microsomes) Cat liver microsomes NADPH +: with NADPH; for metabolism in cat liver microsomes (in words): in the presence of NADPH
Method: as §1, §2

[4] = target: T1, sEH activity from liver cytosol of Hamster (Mesocricetus auratus, UniProt A0A1U7QV09); assay: sEH inhibition potency (IC50), radioactive assay with [3H]t-DPPO, liver cytosol; type: biochemical; settings: [3H]t-DPPO ([S]final = 5 μM) as substrate
T1 sequence (A0A1U7QV09 1-554): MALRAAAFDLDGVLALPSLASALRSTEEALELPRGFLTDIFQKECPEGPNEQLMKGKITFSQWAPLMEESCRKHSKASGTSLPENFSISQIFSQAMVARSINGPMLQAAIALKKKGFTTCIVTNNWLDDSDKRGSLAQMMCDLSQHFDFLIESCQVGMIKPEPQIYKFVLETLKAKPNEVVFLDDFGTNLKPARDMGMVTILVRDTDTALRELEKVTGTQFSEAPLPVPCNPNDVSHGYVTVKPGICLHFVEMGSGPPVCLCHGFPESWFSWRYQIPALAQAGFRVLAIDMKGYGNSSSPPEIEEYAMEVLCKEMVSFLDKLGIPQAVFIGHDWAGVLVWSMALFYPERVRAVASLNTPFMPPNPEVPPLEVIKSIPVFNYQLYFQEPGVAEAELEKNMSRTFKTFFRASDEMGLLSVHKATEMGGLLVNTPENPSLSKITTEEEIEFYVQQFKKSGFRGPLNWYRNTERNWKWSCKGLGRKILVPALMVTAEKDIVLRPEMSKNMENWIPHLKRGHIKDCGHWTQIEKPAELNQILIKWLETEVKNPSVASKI
Description: (§3) Fresh liver tissues samples (5–30 g) were collected promptly after death from healthy adult cat, dog and horse euthanized for reasons unrelated to this study, and whose bodies were given to science by the owners in line with federal regulations and protocol approved by the Institutional Animal Care and Use Committee at University of California Davis. Similarly, tissues from the other animals tested herein were collected from healthy animals immediately after being slaughter at the university abattoir. Because no animals were directly used or killed for this study, sample collections were exempted from approval by the Institutional Animal Care and Use Committee of the University of California Davis and Michigan State University. […] The tissues were flash-frozen in liquid nitrogen following removal, and then kept at −80°C until used. After thawing on ice, the samples were homogenized in chilled sodium phosphate buffer (20 mM pH 7.4) containing 5 mM EDTA, 1 mM DTT and 1 mM PMSF (tissue weight:buffer volume ratio 1:4). These homogenates were centrifuged at 100,000 g for 60 min at 4°C. The supernatant (the cytosolic fraction) was separated from the pellet, aliquoted and flash frozen in liquid nitrogen, then kept frozen at −80°C until usage.
(§4) The IC50 values reported herein were determined using either a fluorescent based assay (CMNPC as substrate) for purified enzyme preparations or a radioactive based assay ([^3H]t-DPPO as substrate) for crude enzyme preparations ([20]). The fluorescent assay was used with the purified proteins. […] The substrate (CMNPC) was then added ([S]final = 5 μM). […] The radioactive […] assay was used with the liver crude extracts. Extracts were incubated with inhibitors ([I]final = 1–1,000 nM) at 30° C for 5 min in sodium phosphate buffer (pH 7.4) containing 0.1 mg/mL of BSA and 1% of DMSO, prior to substrate introduction ([^3H]t-DPPO [S]final: 50 μM; ~12,000 dpm/assay). The enzymes were incubated at 30°C for 10 min, and the reaction was quenched by the addition of 60 μL methanol and 200 μL isooctane, which extracts the remaining epoxide from the aqueous phase. […] Assays were performed in triplicate.

[5] = target: T2, sEH activity from liver cytosol of Pig (Sus scrofa, UniProt Q6Q2C2); assay: as above; type: biochemical; settings: for IC50: liver cytosol, [3H]t-DPPO ([S]final = 5 μM) as substrate, read-out: IC50 (nM) Pig
T2 construct: The radioactive fluorescent assay was used with the liver crude extracts; from tissue; host or cells: pig liver cytosol (100,000 g supernatant)
T2 sequence (Q6Q2C2 1-555): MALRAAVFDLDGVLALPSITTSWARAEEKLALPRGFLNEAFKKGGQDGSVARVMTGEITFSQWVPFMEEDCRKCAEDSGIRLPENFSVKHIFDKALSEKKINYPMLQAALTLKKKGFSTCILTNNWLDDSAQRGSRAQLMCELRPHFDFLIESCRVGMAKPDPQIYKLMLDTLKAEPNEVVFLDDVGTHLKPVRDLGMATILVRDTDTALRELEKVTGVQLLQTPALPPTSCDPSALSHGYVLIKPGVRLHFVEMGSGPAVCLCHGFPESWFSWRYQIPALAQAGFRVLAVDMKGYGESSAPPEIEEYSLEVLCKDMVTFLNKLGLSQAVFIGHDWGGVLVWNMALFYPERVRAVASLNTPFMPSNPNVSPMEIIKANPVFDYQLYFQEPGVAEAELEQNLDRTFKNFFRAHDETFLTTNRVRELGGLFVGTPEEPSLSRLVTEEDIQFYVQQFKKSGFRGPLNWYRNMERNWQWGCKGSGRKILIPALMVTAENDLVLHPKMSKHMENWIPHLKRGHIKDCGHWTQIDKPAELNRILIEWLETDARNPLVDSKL
Description: as §3, §4

[6] = target: sEH activity from liver cytosol of Sheep (Ovis aries, UniProt A0ACI6PZ20); assay: as above; type: biochemical
Chain of sEH activity from liver cytosol of Sheep (A0ACI6PZ20 entry or part of it): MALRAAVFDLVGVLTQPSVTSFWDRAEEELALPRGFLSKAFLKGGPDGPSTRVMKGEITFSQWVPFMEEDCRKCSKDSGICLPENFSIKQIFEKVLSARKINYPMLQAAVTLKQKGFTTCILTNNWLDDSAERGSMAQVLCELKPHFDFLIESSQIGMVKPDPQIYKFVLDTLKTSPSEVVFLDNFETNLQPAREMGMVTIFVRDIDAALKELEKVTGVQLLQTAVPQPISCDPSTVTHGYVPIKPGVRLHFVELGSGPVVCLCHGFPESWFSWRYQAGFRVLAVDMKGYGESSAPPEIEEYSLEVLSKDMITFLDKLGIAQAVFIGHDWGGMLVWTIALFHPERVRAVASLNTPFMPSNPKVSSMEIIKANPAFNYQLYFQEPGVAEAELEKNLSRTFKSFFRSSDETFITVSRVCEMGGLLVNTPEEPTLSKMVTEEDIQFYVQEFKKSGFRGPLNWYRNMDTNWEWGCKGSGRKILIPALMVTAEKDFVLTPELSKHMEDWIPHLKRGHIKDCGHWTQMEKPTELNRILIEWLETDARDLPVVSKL
Description: as §3, §4

[7] = [3H]t-DPPO ([S]final = 5 μM) as substrate, read-out: IC50 (nM) Sheep

Structure (SMILES)	Stability (% without microsomes) Horse liver microsomes NADPH + (Microsomal stability [1]) [%]	metabolism in horse liver microsomes (in words) (Microsomal stability [1])	Stability (% without microsomes) Dog liver microsomes NADPH + (Microsomal stability [2]) [%]	Stability (% without microsomes) Dog liver microsomes NADPH – (Microsomal stability [2]) [%]	metabolism in dog liver microsomes (in words) (Microsomal stability [2])	Stability (% without microsomes) Cat liver microsomes NADPH + (Microsomal stability [3]) [%]	Stability (% without microsomes) Cat liver microsomes NADPH – (Microsomal stability [3]) [%]	metabolism in cat liver microsomes (in words) (Microsomal stability [3])	IC50 [4] [nM]	IC50 [5] [nM]	IC50 [6, 7] [nM]	Stability (% without microsomes) Horse liver microsomes NADPH – (Microsomal stability [1]) [%]	pIC50 [5]	IC50 ([6]; read-out: IC50 (nM) Sheep, [3H]t-DPPO ([S]final = 5 μM) as substrate) [nM]	stability in horse liver microsomes (in words) (Microsomal stability [1]; in the absence of NADPH)	stability in dog liver microsomes (in words) (Microsomal stability [2]; in the absence of NADPH)	stability in cat liver microsomes (in words) (Microsomal stability [3]; in the absence of NADPH)
O=C(NCCCCOc1ccc(F)cc1)NC12CC3CC(CC(C3)C1)C2 [1,707]	1.6 ± 0.2	metabolized rapidly	8 ± 3	87 ± 17	metabolized rapidly	5 ± 1	101 ± 14	metabolized rapidly	2	6	2	–	–	–	–	–	–
O=C(Nc1ccc(OC(F)(F)F)cc1)N[C@H]1CC[C@H](Oc2ccc(C(=O)O)cc2)CC1 [1,728, trans-4-{4-[3-(4-trifluoromethoxy-phenyl)-ureido]-cyclohexyloxy}-benzoic acid]	89 ± 3	most stable	100 ± 3	104 ± 3	most stable	101 ± 3	103 ± 8	most stable	5	–	–	108 ± 10	8.05	6	–	–	–
N#CNC(=O)CCCCCCCCCCCNC(=O)NC12CC3CC(CC(C3)C1)C2 [1,845]	28 ± 9	further metabolized	34 ± 11	84 ± 3	further metabolized	9 ± 2	5 ± 1	–	34	81	7	67 ± 3	–	–	not stable	not stable	not stable
